Literature values, collected in publication PMC10323144, “Garbage in, garbage out: how reliable training data improved a virtual screening approach against SARS-CoV-2 MPro” (Frontiers in Pharmacology, 2023).
Where a name gives a salt, the structure may show the parent alone.

system: MPro; details: compiled from peer-reviewed sources (287 compounds) ref the 18 original articles; cited from earlier work

| Structure (SMILES) | Class (MPro activity class) |
| --- | --- |
| N#C[C@@H]1C[C@@H]2C[C@@H]2N1C(=O)[C@@H](N)C12CC3CC(CC(O)(C3)C1)C2 [Saxagliptin] | 0 (compounds with IC50 > 20 μM, percentage inhibition <80% at 20 µM or 50 μM, or percentage enzyme inhibition <50% at 10 µM were labelled as INACTIVE) |
| O=c1cc(-c2ccc(O)cc2)oc2cc(O)c(O)c(O)c12 [Scutellarein] | 1 (Compounds with IC50 < 10 µM or with a percentage of enzyme inhibition >50% at 10 µM were labelled as ACTIVE) |
| O=C(O)[C@H]1O[C@@H](Oc2cc3oc(-c4ccc(O)cc4)cc(=O)c3c(O)c2O)[C@H](O)[C@@H](O)[C@@H]1O [Scutellarin] | 0 (compounds with IC50 > 20 μM, percentage inhibition <80% at 20 µM or 50 μM, or percentage enzyme inhibition <50% at 10 µM were labelled as INACTIVE) |
| C=C[C@H]1[C@H](O[C@@H]2O[C@H](CO)[C@@H](O)[C@H](O)[C@H]2O)OC=C(C(=O)OC)[C@H]1CC(=O)O [Secoxyloganin] | 0 (compounds with IC50 > 20 μM, percentage inhibition <80% at 20 µM or 50 μM, or percentage enzyme inhibition <50% at 10 µM were labelled as INACTIVE) |
| CC(C)[C@H](O)C(=O)N[C@@H](C)C(=O)N[C@@H]1C(=O)N(C)CCc2ccccc21 [Semagacestat] | 0 (compounds with IC50 > 20 μM, percentage inhibition <80% at 20 µM or 50 μM, or percentage enzyme inhibition <50% at 10 µM were labelled as INACTIVE) |
| N[C@@H](CC(=O)N1CCn2c(nnc2C(F)(F)F)C1)Cc1cc(F)c(F)cc1F [Sitagliptin] | 0 (compounds with IC50 > 20 μM, percentage inhibition <80% at 20 µM or 50 μM, or percentage enzyme inhibition <50% at 10 µM were labelled as INACTIVE) |
| CC(C)OC(=O)[C@H](C)N[P@](=O)(OC[C@H]1O[C@@H](n2ccc(=O)[nH]c2=O)[C@](C)(F)[C@@H]1O)Oc1ccccc1 [Sofosbuvir] | 0 (compounds with IC50 > 20 μM, percentage inhibition <80% at 20 µM or 50 μM, or percentage enzyme inhibition <50% at 10 µM were labelled as INACTIVE) |
| CCc1nc(-c2cccc(C)c2)c(-c2ccnc(NC(=O)c3ccccc3)c2)s1 [TAK-715] | 0 (compounds with IC50 > 20 μM, percentage inhibition <80% at 20 µM or 50 μM, or percentage enzyme inhibition <50% at 10 µM were labelled as INACTIVE) |
| CC/C(=C(\c1ccccc1)c1ccc(OCCN(C)C)cc1)c1ccccc1 [TAMOXIFEN CITRATE] | 0 (compounds with IC50 > 20 μM, percentage inhibition <80% at 20 µM or 50 μM, or percentage enzyme inhibition <50% at 10 µM were labelled as INACTIVE) |
| Nc1nc(N)c2nc(-c3cccc(O)c3)c(-c3cccc(O)c3)nc2n1 [TG100-115] | 0 (compounds with IC50 > 20 μM, percentage inhibition <80% at 20 µM or 50 μM, or percentage enzyme inhibition <50% at 10 µM were labelled as INACTIVE) |
| Cc1ccncc1NC(=O)Cc1cc(Cl)cc(OC2CC(=O)N2)c1 (stereo not drawn) [TRY-UNI-2eddb1ff-7] | 1 (Compounds with IC50 < 10 µM or with a percentage of enzyme inhibition >50% at 10 µM were labelled as ACTIVE) |
| Cc1ccncc1NC(=O)Cc1cccc(Cl)c1 [TRY-UNI-714a760b-6] | 0 (compounds with IC50 > 20 μM, percentage inhibition <80% at 20 µM or 50 μM, or percentage enzyme inhibition <50% at 10 µM were labelled as INACTIVE) |
| Cc1ccncc1NC(=O)Cc1cccc(C#N)c1 [TRY-UNI-714a760b-20] | 0 (compounds with IC50 > 20 μM, percentage inhibition <80% at 20 µM or 50 μM, or percentage enzyme inhibition <50% at 10 µM were labelled as INACTIVE) |
| CCC[C@H](NC(=O)[C@@H]1[C@H]2CCC[C@H]2CN1C(=O)[C@@H](NC(=O)[C@@H](NC(=O)c1cnccn1)C1CCCCC1)C(C)(C)C)C(=O)C(=O)NC1CC1 [Telaprevir] | 0 (compounds with IC50 > 20 μM, percentage inhibition <80% at 20 µM or 50 μM, or percentage enzyme inhibition <50% at 10 µM were labelled as INACTIVE) |
| COc1cnc(-n2cnc(C)n2)c2[nH]cc(C(=O)C(=O)N3CCN(C(=O)c4ccccc4)CC3)c12 [Temsavir] | 0 (compounds with IC50 > 20 μM, percentage inhibition <80% at 20 µM or 50 μM, or percentage enzyme inhibition <50% at 10 µM were labelled as INACTIVE) |
| C[C@H](Cn1cnc2c(N)ncnc21)OCP(=O)(O)O [Tenofovir] | 0 (compounds with IC50 > 20 μM, percentage inhibition <80% at 20 µM or 50 μM, or percentage enzyme inhibition <50% at 10 µM were labelled as INACTIVE) |
| O=c1sn(-c2cccc3ccccc23)c(=O)n1Cc1ccccc1 [Tideglusib] | 1 (Compounds with IC50 < 10 µM or with a percentage of enzyme inhibition >50% at 10 µM were labelled as ACTIVE) |
| CCC[C@@]1(CCc2ccccc2)CC(O)=C([C@H](CC)c2cccc(NS(=O)(=O)c3ccc(C(F)(F)F)cn3)c2)C(=O)O1 [Tipranavir] | 0 (compounds with IC50 > 20 μM, percentage inhibition <80% at 20 µM or 50 μM, or percentage enzyme inhibition <50% at 10 µM were labelled as INACTIVE) |
| C[C@@H]1CCN(C(=O)CC#N)C[C@@H]1N(C)c1ncnc2[nH]ccc12 [Tofacitinib] | 0 (compounds with IC50 > 20 μM, percentage inhibition <80% at 20 µM or 50 μM, or percentage enzyme inhibition <50% at 10 µM were labelled as INACTIVE) |
| Cn1c(=O)cc(N2CCC[C@@H](N)C2)n(Cc2cc(F)ccc2C#N)c1=O [Trelagliptin] | 0 (compounds with IC50 > 20 μM, percentage inhibition <80% at 20 µM or 50 μM, or percentage enzyme inhibition <50% at 10 µM were labelled as INACTIVE) |

| Structure (SMILES) | Class (MPro activity class) |
| --- | --- |
| C[C@]12CC[C@H]3[C@@H](CC[C@@]45O[C@@H]4C(O)=C(C#N)C[C@]35C)[C@@H]1CC[C@@H]2O [Trilostane] | 0 (compounds with IC50 > 20 μM, percentage inhibition <80% at 20 µM or 50 μM, or percentage enzyme inhibition <50% at 10 µM were labelled as INACTIVE) |
| CC(C)CC(NC(=O)OCc1ccccc1)C(=O)NC(CC1CCNC1=O)C(=O)C(=O)NC1CC1 (stereo not drawn) [UAWJ246] | 1 (Compounds with IC50 < 10 µM or with a percentage of enzyme inhibition >50% at 10 µM were labelled as ACTIVE) |
| O=C(NC(Cc1ccccc1)C(=O)NC(CC1CCNC1=O)C(O)S(=O)(=O)O)OCc1ccccc1 (stereo not drawn) [UAWJ247] | 1 (Compounds with IC50 < 10 µM or with a percentage of enzyme inhibition >50% at 10 µM were labelled as ACTIVE) |
| CC(C)CC(NC(=O)OCc1ccccc1)C(=O)NC(CC(C)C)C(=O)NC(CC1CCNC1=O)C(=O)C(=O)NC1CC1 (stereo not drawn) [UAWJ248] | 1 (Compounds with IC50 < 10 µM or with a percentage of enzyme inhibition >50% at 10 µM were labelled as ACTIVE) |
| CCCC(NC(=O)C(CC(C)C)NC(=O)OCc1ccccc1)C(=O)C(=O)NCc1ccccc1 (stereo not drawn) [UAWJ257] | 0 (compounds with IC50 > 20 μM, percentage inhibition <80% at 20 µM or 50 μM, or percentage enzyme inhibition <50% at 10 µM were labelled as INACTIVE) |
| CCOC(=O)c1c(CSc2ccccc2)n(C)c2cc(Br)c(O)c(CN(C)C)c12 [Umifenovir] | 0 (compounds with IC50 > 20 μM, percentage inhibition <80% at 20 µM or 50 μM, or percentage enzyme inhibition <50% at 10 µM were labelled as INACTIVE) |
| Cc1cc(Cn2nnc3c(-c4ccco4)nc(N)nc32)ccc1N [VIPADENANT] | 0 (compounds with IC50 > 20 μM, percentage inhibition <80% at 20 µM or 50 μM, or percentage enzyme inhibition <50% at 10 µM were labelled as INACTIVE) |
| CCn1c(=O)c(-c2cc[nH]n2)cc2c(C)nc(N)nc21 [VOXTALISIB] | 0 (compounds with IC50 > 20 μM, percentage inhibition <80% at 20 µM or 50 μM, or percentage enzyme inhibition <50% at 10 µM were labelled as INACTIVE) |
| C[C@H](NC(=O)/C(C#N)=C/c1cccc(Br)n1)c1ccccc1 [WP1066] | 0 (compounds with IC50 > 20 μM, percentage inhibition <80% at 20 µM or 50 μM, or percentage enzyme inhibition <50% at 10 µM were labelled as INACTIVE) |
| COc1c(O)cc(O)c2c(=O)cc(-c3ccccc3)oc12 [Wogonin] | 0 (compounds with IC50 > 20 μM, percentage inhibition <80% at 20 µM or 50 μM, or percentage enzyme inhibition <50% at 10 µM were labelled as INACTIVE) |
| COc1c(O[C@@H]2O[C@H](C(=O)O)[C@@H](O)[C@H](O)[C@H]2O)cc(O)c2c(=O)cc(-c3ccccc3)oc12 [Wogonoside] | 0 (compounds with IC50 > 20 μM, percentage inhibition <80% at 20 µM or 50 μM, or percentage enzyme inhibition <50% at 10 µM were labelled as INACTIVE) |
| CC(NC(=O)C(Cc1ccccc1)NC(=O)OCc1ccccc1)C(=O)CF (stereo not drawn) [Z-FA-FMK] | 0 (compounds with IC50 > 20 μM, percentage inhibition <80% at 20 µM or 50 μM, or percentage enzyme inhibition <50% at 10 µM were labelled as INACTIVE) |
| CC(C)C[C@H](NC(=O)[C@H](Cc1ccccc1)NC(=O)c1cnccn1)B(O)O [bortezomib] | 0 (compounds with IC50 > 20 μM, percentage inhibition <80% at 20 µM or 50 μM, or percentage enzyme inhibition <50% at 10 µM were labelled as INACTIVE) |
| CC(C)C[C@H](NC(=O)[C@H](CCc1ccccc1)NC(=O)CN1CCOCC1)C(=O)N[C@@H](Cc1ccccc1)C(=O)N[C@@H](CC(C)C)C(=O)[C@@]1(C)CO1 [carfilzomib] | 0 (compounds with IC50 > 20 μM, percentage inhibition <80% at 20 µM or 50 μM, or percentage enzyme inhibition <50% at 10 µM were labelled as INACTIVE) |
| CC(C)c1nc(CN(C)C(=O)N[C@@H](CCN2CCOCC2)C(=O)N[C@H](CC[C@H](Cc2ccccc2)NC(=O)OCc2cncs2)Cc2ccccc2)cs1 [cobicistat] | 1 (Compounds with IC50 < 10 µM or with a percentage of enzyme inhibition >50% at 10 µM were labelled as ACTIVE) |
| N#Cc1ccccc1-c1cc(-c2cccc(Cl)c2)c(=O)n(-c2cccnc2)c1 [compound 2] | 1 (Compounds with IC50 < 10 µM or with a percentage of enzyme inhibition >50% at 10 µM were labelled as ACTIVE) |
| N#Cc1ccccc1-c1cc(-c2cc(Cl)cc(Cl)c2)c(=O)n(-c2cccnc2)c1 [compound 4] | 1 (Compounds with IC50 < 10 µM or with a percentage of enzyme inhibition >50% at 10 µM were labelled as ACTIVE) |
| COCCOc1cc(Cl)cc(-c2cc(-c3ccccc3C#N)cn(-c3cccnc3)c2=O)c1 [compound 6] | 1 (Compounds with IC50 < 10 µM or with a percentage of enzyme inhibition >50% at 10 µM were labelled as ACTIVE) |
| N#Cc1ccccc1-c1cc(-c2cc(Cl)cc(OCc3ccccc3)c2)c(=O)n(-c2cccnc2)c1 [compound 7] | 1 (Compounds with IC50 < 10 µM or with a percentage of enzyme inhibition >50% at 10 µM were labelled as ACTIVE) |
